Laboratory results as given in patent US7384954B2 (priority 2003, dated 2008).

Target: α7 nAChR subtype (Rattus norvegicus, UniProt Q05941)
Type: binding
Details: read-out: KD of radioligand from saturation curves

α7 nAChR subtype, sequence (Q05941 23-502 limits assumed): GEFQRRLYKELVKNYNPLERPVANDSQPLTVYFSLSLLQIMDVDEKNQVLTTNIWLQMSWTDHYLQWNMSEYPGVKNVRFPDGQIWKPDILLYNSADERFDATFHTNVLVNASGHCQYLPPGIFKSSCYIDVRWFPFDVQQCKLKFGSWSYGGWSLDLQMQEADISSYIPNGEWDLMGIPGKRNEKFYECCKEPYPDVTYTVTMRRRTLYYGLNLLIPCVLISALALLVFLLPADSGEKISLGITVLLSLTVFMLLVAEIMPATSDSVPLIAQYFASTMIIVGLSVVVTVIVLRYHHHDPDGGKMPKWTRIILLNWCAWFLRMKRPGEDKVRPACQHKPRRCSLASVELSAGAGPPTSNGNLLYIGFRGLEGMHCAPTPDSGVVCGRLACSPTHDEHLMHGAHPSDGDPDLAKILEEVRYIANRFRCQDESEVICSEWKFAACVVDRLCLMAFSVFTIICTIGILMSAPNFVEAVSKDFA

Substance: 125I-α-Bungarotoxin [[^125I]-α-BTX]
- Kd: 1.67 nM
